Drawing on patent US20230066011A1, “PYRROLOPYRIMIDINE DERIVATIVE, AND PHARMACEUTICAL COMPOSITION FOR PREVENTING OR TREATING PROTEIN KINASE-RELATED DISEASE COMPRISING SAME AS ACTIVE INGREDIENT” (VORONOI CO., LTD., priority 2019, published 2023), this text covers IC50 for 20 compounds.

Holding throughout (assay type): biochemical
For one test, the target named is T1, human GST-CLK1 (Homo sapiens, UniProt P49759).
T1 construct: purified human GST-CLK1 (129-end, SignalChem) enzyme; purchased SignalChem
T1 sequence (P49759 129-484 limits assumed): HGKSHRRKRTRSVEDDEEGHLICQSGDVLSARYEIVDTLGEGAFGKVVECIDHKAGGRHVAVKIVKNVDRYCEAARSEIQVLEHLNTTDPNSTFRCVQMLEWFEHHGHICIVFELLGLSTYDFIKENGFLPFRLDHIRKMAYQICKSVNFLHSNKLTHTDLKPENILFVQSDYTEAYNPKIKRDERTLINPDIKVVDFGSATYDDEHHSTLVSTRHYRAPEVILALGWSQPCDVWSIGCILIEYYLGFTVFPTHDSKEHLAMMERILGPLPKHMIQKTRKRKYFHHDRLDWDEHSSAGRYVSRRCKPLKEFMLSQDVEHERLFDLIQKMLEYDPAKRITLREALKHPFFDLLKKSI
The test can be described thus: GST-CLK1 enzyme inhibition, ADP-Glo kinase assay. As to conditions: ATP 10 μM, GST-CLK1 129-end. An outline of the steps: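 Human GST-CLK1 (129-end, 3 ng) reacted with substrate and 10 μM ATP for 1 h at 25° C in 40 mM Tris-HCl pH 7.4, 20 mM MgCl2, 0.5 mg/mL BSA, 50 μM DTT. ADP-Glo luminescence was normalised to solvent control; IC50 (nM) from 3 data sets.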
For orientation: ADP-Glo turns the ADP formed in a reaction into a luminescent signal.

The target of another test is LRRK2 (G2019S) (Homo sapiens, UniProt Q5S007, G2019S). The test can be described thus: LRRK2 G2019S enzyme inhibition, ADP-Glo kinase assay. Also on record: purchased SignalChem L10-12GG. As to conditions: ATP 25 μM. How it is done:
To evaluate an inhibitory activity of the compound according to the present invention against LRRK2, LRRK2 (G2019S), DYRK1, CLK1, and TTK kinases, experiments were performed as follows.
Each of the Example compounds was reacted with a purified human LRRK2 G2019S (L10-12GG, SignalChem) enzyme to evaluate an ability to inhibit an enzyme using a method as described below. A composition of 40 mM Tris-HCl (pH 7.4), 20 mM MgCl2, 0.5 mg/mL BSA, and 50 μM DTT was used as a reaction buffer, and all reactions of test substances were performed in the reaction buffer. Each of the compounds was diluted […] from a 10 mM DMSO stock using a serial dilution method, and enzyme activities were measured at final compound concentrations of 50, 10, 2, 0.4, 0.08, 0.016, 0.0032, 0.00064, 0.000128, 0.0000256, 0.00000512, and 0.000001024 μM. In the test, purified ATP (25 μM) and an enzyme substrate (0.2 μg) were reacted with a human LRRK2 G2019S (16 ng) enzyme at 25° C. for 2 hours, and the enzyme activities were then determined using an in vitro ADP-Glo™ kinase assay (Promega). An enzyme-activity reaction solution, an ADP-Glo reaction solution, and an enzyme-ability detection solution were reacted at a ratio of 2:2:1 to measure a degree of inhibition of the enzyme activity with luminescence. The degree of inhibition of the enzyme activity according to the treatment concentration of each of the compounds was calculated based on the fluorescence of the enzyme activity of the solvent control which was not treated with the compound. In this case, the concentration of each of the compounds inhibiting 50% of the enzyme activity was determined to be an IC50 (nM) value, and calculated using Prism (Version 5.01; GraphPad) software.

A further test concerns the target T2, human GST-DYRK1A (Homo sapiens, UniProt Q13627).
T2 construct: purified human GST-DYRK1A (full length, Thermo Scientifics) enzyme; purchased Thermo Scientifics
The test can be described thus: GST-DYRK1A enzyme inhibition, ADP-Glo kinase assay. Conditions: ATP 10 μM, GST-DYRK1A full length, read-out: DYRK1 IC50. An outline of the steps: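 Full-length human GST-DYRK1A (10 ng) with 10 μM ATP and specific substrate in 40 mM Tris-HCl pH 7.4, 20 mM MgCl2, 0.5 mg/mL BSA, 50 μM DTT, 1 h at 25 °C. ADP formation read by ADP-Glo luminescence relative to solvent control; IC50 from three data sets.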

pIC50: −log10 of the molar value.

LRRK2 (G2019S), sequence (Q5S007 970-2527 G2019S limits assumed): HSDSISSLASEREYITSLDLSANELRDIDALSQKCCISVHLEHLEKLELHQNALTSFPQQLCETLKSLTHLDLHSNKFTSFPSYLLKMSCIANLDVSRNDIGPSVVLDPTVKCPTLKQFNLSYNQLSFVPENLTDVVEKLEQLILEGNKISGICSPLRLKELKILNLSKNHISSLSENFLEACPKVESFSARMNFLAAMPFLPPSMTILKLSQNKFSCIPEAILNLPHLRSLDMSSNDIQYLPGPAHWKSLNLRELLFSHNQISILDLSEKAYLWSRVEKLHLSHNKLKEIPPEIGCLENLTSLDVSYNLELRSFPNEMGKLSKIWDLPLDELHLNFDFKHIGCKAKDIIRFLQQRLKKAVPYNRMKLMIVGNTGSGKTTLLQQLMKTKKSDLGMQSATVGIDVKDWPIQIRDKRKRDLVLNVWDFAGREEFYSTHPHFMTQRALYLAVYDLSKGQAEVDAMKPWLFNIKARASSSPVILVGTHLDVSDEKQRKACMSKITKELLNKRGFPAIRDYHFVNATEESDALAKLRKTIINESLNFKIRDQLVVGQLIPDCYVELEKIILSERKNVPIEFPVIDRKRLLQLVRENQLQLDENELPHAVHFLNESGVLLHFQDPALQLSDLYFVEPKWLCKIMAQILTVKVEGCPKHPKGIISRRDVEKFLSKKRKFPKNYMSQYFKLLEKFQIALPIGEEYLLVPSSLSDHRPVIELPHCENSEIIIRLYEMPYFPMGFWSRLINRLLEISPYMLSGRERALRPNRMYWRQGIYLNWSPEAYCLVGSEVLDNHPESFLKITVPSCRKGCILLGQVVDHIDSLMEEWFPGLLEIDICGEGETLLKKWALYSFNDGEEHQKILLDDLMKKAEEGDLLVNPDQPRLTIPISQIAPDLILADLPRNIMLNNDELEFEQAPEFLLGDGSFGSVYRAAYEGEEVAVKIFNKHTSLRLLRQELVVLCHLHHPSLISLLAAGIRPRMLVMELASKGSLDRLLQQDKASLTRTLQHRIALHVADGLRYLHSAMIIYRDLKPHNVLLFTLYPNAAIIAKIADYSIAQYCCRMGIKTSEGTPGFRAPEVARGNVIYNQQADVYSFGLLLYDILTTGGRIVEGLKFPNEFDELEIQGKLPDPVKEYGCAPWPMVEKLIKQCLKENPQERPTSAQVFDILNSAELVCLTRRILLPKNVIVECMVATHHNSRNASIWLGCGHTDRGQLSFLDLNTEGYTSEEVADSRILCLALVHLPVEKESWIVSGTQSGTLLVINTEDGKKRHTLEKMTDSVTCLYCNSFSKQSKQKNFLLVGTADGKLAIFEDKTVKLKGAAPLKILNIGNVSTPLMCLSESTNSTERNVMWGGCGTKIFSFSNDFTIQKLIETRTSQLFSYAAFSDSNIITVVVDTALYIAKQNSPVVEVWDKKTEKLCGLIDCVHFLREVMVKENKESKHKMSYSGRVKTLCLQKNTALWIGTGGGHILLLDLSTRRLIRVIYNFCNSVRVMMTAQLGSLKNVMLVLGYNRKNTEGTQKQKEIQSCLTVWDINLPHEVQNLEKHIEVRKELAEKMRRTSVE

Regarding `COc1cc(S(C)(=O)=O)ccc1Nc1nc(NC2CCCC2)c2cc[nH]c2n1` [Example 1, N^4-cyclopentyl-N^2-(2-methoxy-4-(methylsulfonyl)phenyl)-7H-pyrrolo[2,3-d]pyrimidine-2,4-diamine], the pIC50 (commonly −log10 of the IC50, conventionally taken in molar units) on human GST-CLK1 was 6.00 to 6.52; on LRRK2 (G2019S), more than 7.00; at human GST-DYRK1A it was 6.00 to 6.52.

For `CNc1nc(Nc2ccc(S(=O)(=O)N3CCOCC3)cc2OC)nc2[nH]ccc12` [Example 2, N^2-(2-methoxy-4-(morpholinosulfonyl)phenyl)-N^4-methyl-7H-pyrrolo[2,3-d]pyrimidine-2,4-diamine 2,2,2-trifluoroacetate], the results for the pIC50 on human GST-CLK1, on LRRK2 (G2019S) and at human GST-DYRK1A were 6.00 to 6.52, more than 7.00 and 6.00 to 6.52, respectively.

In the case of `CCNc1nc(Nc2ccc(C(=O)N3CCOCC3)c3c2OCC3)nc2[nH]cc(C#N)c12` [Example 346, 4-(ethylamino)-2-((4-(morpholine-4-carbonyl)-2,3-dihydrobenzo-furan-7-yl)amino)-7H-pyrrolo[2,3-d]pyrimidine-5-carbonitrile], the pIC50 against human GST-CLK1 is more than 7.00; on human GST-DYRK1A, 6.52 to 7.00.

With `CCCNc1nc(Nc2ccc(C(=O)N3CCOCC3)c3c2OCC3)nc2[nH]cc(C#N)c12` [Example 348, 2-((4-(morpholine-4-carbonyl)-2,3-dihydrobenzo-furan-7-yl)amino)-4-(propylamino)-7H-pyrrolo[2,3-d]pyrimidine-5-carbonitrile], the results for the pIC50 at human GST-CLK1 and at human GST-DYRK1A were more than 7.00 and 6.00 to 6.52, respectively.

With `CC(C)CNc1nc(Nc2ccc(C(=O)N3CCOCC3)c3c2OCC3)nc2[nH]cc(C#N)c12` [Example 350, 4-(isobutyl-amino)-2-((4-(morpholine-4-carbonyl)-2,3-dihydrobenzo-furan-7-yl)amino)-7H-pyrrolo[2,3-d]pyrimidine-5-carbonitrile], the pIC50 against human GST-CLK1 is more than 7.00; at human GST-DYRK1A, 6.00 to 6.52.

As to `CC(C)CNc1nc(Nc2ccc(C(=O)N3CCC(N4CCOCC4)CC3)c3c2OCC3)nc2[nH]cc(C#N)c12` [Example 351, 4-(isobutyl-amino)-2-((4-(4-morpholino-piperidine-1-carbonyl)-2,3-dihydro-benzofuran-7-yl)amino)-7H-pyrrolo[2,3-d]pyrimidine-5-carbonitrile], the pIC50 on human GST-CLK1 is more than 7.00; at human GST-DYRK1A, 6.00 to 6.52.

On to `CC(C)Nc1nc(Nc2ccc(C(=O)N3CCOCC3)c3c2OCC3)nc2[nH]cc(C#N)c12` [Example 352, 4-(isopropyl-amino)-2-((4-(morpholine-4-carbonyl)-2,3-dihydro-benzofuran-7-yl)amino)-7H-pyrrolo[2,3-d]pyrimidine-5-carbonitrile], for which the figures for the pIC50 against human GST-CLK1 and at human GST-DYRK1A were more than 7.00 and 6.00 to 6.52, respectively.

For the compound `COCCNc1nc(Nc2ccc(C(=O)N3CCOCC3)c3c2OCC3)nc2[nH]cc(C#N)c12` [Example 358, 4-((2-methoxy-ethyl)ami-no)-2-((4-(morpholine-4-carbonyl)-2,3-dihydrobenzo-furan-7-yl)amino)-7H-pyrrolo[2,3-d]pyrimidine-5-carbonitrile], the pIC50 against human GST-CLK1 and at human GST-DYRK1A was 6.52 to 7.00 throughout.

As for `N#Cc1c[nH]c2nc(Nc3ccc(C(=O)N4CCOCC4)c4c3OCC4)nc(NC3CCC3)c12` [Example 360, 4-(cyclo-butylamino)-2-((4-(morpholine-4-carbonyl)-2,3-dihydrobenzo-furan-7-yl)amino)-7H-pyrrolo[2,3-d]pyrimidine-5-carbonitrile], the pIC50 on human GST-CLK1 was more than 7.00; at human GST-DYRK1A, 6.52 to 7.00.

Turning to `CC(C)Nc1nc(Nc2ccc(C(=O)N3CCC(N4CCOCC4)CC3)c3c2OCCO3)nc2[nH]cc(C(F)(F)F)c12` [Example 365, (8-((4-(isopropylamino)-5-(trifluoromethyl)-7H-pyrrolo[2,3-d]pyrimidin-2-yl)amino)-2,3-dihydrobenzo[b] [1,4]dioxin-5-yl) (4-morpholino-piperidin-1-yl)methanone], the pIC50 on human GST-CLK1 and at human GST-DYRK1A was more than 7.00 in each case.

As to `CCNc1nc(Nc2ccc(P(C)(C)=O)cc2OC)nc2[nH]cc(C(F)(F)F)c12` [Example 368, (4-((4-(ethylamino)-5-(trifluoromethyl)-7H-pyrrolo[2,3-d]pyrimidin-2-yl)amino)-3-methoxyphenyl) dimethyl-phosphine oxide], the values for the pIC50 against human GST-CLK1 and on human GST-DYRK1A were more than 7.00 and 6.52 to 7.00, respectively.

Take `CCCNc1nc(Nc2ccc(P(C)(C)=O)cc2OC)nc2[nH]cc(C(F)(F)F)c12` [Example 369, (3-methoxy-4-((4-(propylamino)-5-(trifluoromethyl)-7H-pyrrolo[2,3-d]pyrimidin-2-yl)amino)phenyl) dimethyl-phosphine oxide]: the pIC50 was more than 7.00 on human GST-CLK1 and 6.52 to 7.00 at human GST-DYRK1A.

On to `COc1cc(P(C)(C)=O)ccc1Nc1nc(NCC(C)C)c2c(C(F)(F)F)c[nH]c2n1` [Example 370, (4-((4-(isobutylamino)-5-(trifluoromethyl)-7H-pyrrolo[2,3-d]pyrimidin-2-yl)amino)-3-methoxyphenyl) dimethyl-phosphine oxide], for which the pIC50 against human GST-CLK1 is more than 7.00; on human GST-DYRK1A, 6.00 to 6.52.

`COc1cc(P(C)(C)=O)ccc1Nc1nc(NC(C)C)c2c(C(F)(F)F)c[nH]c2n1` [Example 371, (4-((4-(isopropylamino)-5-(trifluoromethyl)-7H-pyrrolo[2,3-d]pyrimidin-2-yl)amino)-3-methoxyphenyl) dimethyl phosphine oxide]: the pIC50 is 6.52 to 7.00 at human GST-CLK1 and 6.00 to 6.52 on human GST-DYRK1A.

`CC[C@H](C)Nc1nc(Nc2ccc(S(=O)(=O)N3CCOCC3)cc2OC)nc2[nH]cc(C(F)(F)F)c12` [Example 379, (S)-N^4-(sec-butyl)-N^2-(2-methoxy-4-(morpholino-sulfonyl)phenyl)-5-(trifluoromethyl)-7H-pyrrolo[2,3-d]pyrimidine-2,4-diamine]: the pIC50 at human GST-CLK1 and at human GST-DYRK1A was 6.00 to 6.52 each time.

`CC[C@H](C)Nc1nc(Nc2ccc(S(C)(=O)=O)cc2OC)nc2[nH]cc(C(F)(F)F)c12` [Example 380, (S)-N^4-(sec-butyl)-N^2-(2-methoxy-4-(methylsulfonyl)phenyl)-5-(trifluoromethyl)-7H-pyrrolo[2,3-d]pyrimidine-2,4-diamine]: the pIC50 against human GST-CLK1 and on human GST-DYRK1A was 6.00 to 6.52 throughout.

`COc1cc(P(C)(C)=O)ccc1Nc1nc(NC2CCC2)c2c(C(F)(F)F)c[nH]c2n1` [Example 386, (4-((4-(cyclo-butylamino)-5-(trifluoromethyl)-7H-pyrrolo[2,3-d]pyrimidin-2-yl)amino)-3-methoxyphenyl) dimethyl phosphine oxide]: the negative logarithm of the IC50 (pIC50) against human GST-CLK1 and at human GST-DYRK1A was 6.00 to 6.52 throughout.

Take `CCNc1nc(Nc2ccc(C(=O)N3CCOCC3)c3c2OCC3)nc2[nH]cc(C(F)(F)F)c12` [Example 437, (7-((4-(ethylamino)-5-(trifluoromethyl)-7H-pyrrolo[2,3-d]pyrimidin-2-yl)amino)-2,3-dihydrobenzo-furan-4-yl) (morpholino) methanone]: the negative logarithm of the IC50 (pIC50) at human GST-CLK1 and on human GST-DYRK1A was more than 7.00 each time.

Take `CCCNc1nc(Nc2ccc(C(=O)N3CCOCC3)c3c2OCC3)nc2[nH]cc(C(F)(F)F)c12` [Example 445, morpholino(7-((4-(propylamino)-5-(trifluoromethyl)-7H-pyrrolo[2,3-d]pyrimidin-2-yl)amino)-2,3-dihydrobenzo-furan-4-yl)methanone]: the negative-log IC50 (pIC50) against human GST-CLK1 and at human GST-DYRK1A was more than 7.00 each time.

Turning to `O=C(c1ccc(Nc2nc(NCC3CCC3)c3c(C(F)(F)F)c[nH]c3n2)c2c1CCO2)N1CCC(N2CCOCC2)CC1` [Example 462, (7-((4-((cyclo-butylmethyl)amino)-5-(trifluoromethyl)-7H-pyrrolo[2,3-d]pyrimidin-2-yl)amino)-2,3-dihydrobenzo-furan-4-yl)(4-morpho-linopiperidin-1-yl)methanone], the pIC50 against human GST-CLK1 is 6.00 to 6.52; on human GST-DYRK1A it was 6.52 to 7.00.
